Entries after “also recorded” stand apart in the source; their conditions may differ.
Tests used:
trigeminal neurons [1] = assay: Whole-cell voltage-clamp recording of cultured trigeminal neurons; assay type: cell-based, mouse; settings: 1 mM acetaldehyde, co-application of 20 μM GdCl3 and 2 mM camphor
Experimental: Trigeminal ganglia were dissected out of decapitated adult ICR mice in cold PBS and treated with 1.5 mg/Ml of collagenase/dispase (Roche Diagnostics, USA) at 37 °C for 45 min, and then treated with 0.25% trypsin (Invitrogen, USA) for 15 min. The trigeminal neurons prepared thereby were then plated onto poly-L-lysine-coated coverslips in DMEM/F12 containing 10% FBS, 1% penicillin/streptomycin and 5 ng/Ml of 2.5S NGF (Invitrogen, USA), nerve growth factor (Invitrogen), followed by culture in a CO2 incubator for 48-72 hours.
Particularly, the extracellular solution (140 mM NaCl, 5 mM KCl, 2 mM CaCl2, 1 mM MgCl2, 10 mM HEPES; titrated to pH 7.4 with NaOH) and the pipette solution (140 mM CsCl, 5 mM EGTA, 10 mM HEPES, 2.0 mM MgATP, 0.2 mM NaGTP; titrated to pH 7.2 with CsOH) were used. The potential was holded at −60 mV for 250 ms, voltage-ramp pulsed from −80 mV to +80 mV for […] and returned to −60 mV for 250 ms, which was repeated without intersweep. This experiment was repeated 5 times.
The trigeminal neurons prepared by the same manner as described in Example 2 were delayed-treated with 1 mM acetaldehyde, followed by treatment of 20 μM GdCl3 (a TRPA1 blocker gadolinium; Sigma-Aldrich, USA) and 2 mM camphor. Then, whole-cell voltage-clamp recording was performed by the same manner as described in Example <5-2>.

ICR mice = assay: Acute hindpaw licking/flicking behavioral analysis; settings: for suppression of cinnamaldehyde-evoked licking/flicking behaviors: 10 mM cinnamaldehyde, 100 μM or 1 mM GdCl3, intradermal; for suppression of cinnamaldehyde-evoked licking/flicking behaviors / suppression of acetaldehyde-evoked licking/flicking behaviors: 10 mM camphor; for suppression of acetaldehyde-evoked licking/flicking behaviors: 100 mM acetaldehyde, 1 mM ruthenium red, 100 μM or 1 mM GdCl3 injected 5 min prior
Experimental: This analysis was performed in accordance with protocols approved by the University Committee on Laboratory Animals. Mice were acclimated for 1 h to the test environment prior to experiments. Drugs dissolved in vehicle (PBS containing 0.5% Tween 80) were injected into mice right hindpaws intradermally.

trigeminal neurons [2] = assay: Fluo-3 calcium imaging of cultured mouse trigeminal neurons; settings: 1 μM PGE2 + modulator: SC-51089 10 μM, U73122 3 μM, U73343 3 μM, BIM 1 μM, chelerythrine 1 μM, H-89 10 μM
hTRPA1 = molecular target: T1, hTRPA1 (Homo sapiens, UniProt O75762); assay: Fluo-3 calcium imaging of hTRPA1-transfected HEK293T cells; assay type: cell-based; settings: for elevation of intracellular calcium levels in hTRPA1-expressing cells: 1 mM acetaldehyde, 300 μM cinnamaldehyde, 10 mM acetic acid, 1% methanol, 1% ethanol; for suppression of acetaldehyde-evoked intracellular calcium influx (hTRPA1): 1 mM acetaldehyde + 2 mM camphor or 10 μM ruthenium red, n=12
T1 construct: expressed in transfected cells; host or cells: HEK293T (ATCC CRL-11268), pcDNA3.1
T1 sequence (O75762 whole entry): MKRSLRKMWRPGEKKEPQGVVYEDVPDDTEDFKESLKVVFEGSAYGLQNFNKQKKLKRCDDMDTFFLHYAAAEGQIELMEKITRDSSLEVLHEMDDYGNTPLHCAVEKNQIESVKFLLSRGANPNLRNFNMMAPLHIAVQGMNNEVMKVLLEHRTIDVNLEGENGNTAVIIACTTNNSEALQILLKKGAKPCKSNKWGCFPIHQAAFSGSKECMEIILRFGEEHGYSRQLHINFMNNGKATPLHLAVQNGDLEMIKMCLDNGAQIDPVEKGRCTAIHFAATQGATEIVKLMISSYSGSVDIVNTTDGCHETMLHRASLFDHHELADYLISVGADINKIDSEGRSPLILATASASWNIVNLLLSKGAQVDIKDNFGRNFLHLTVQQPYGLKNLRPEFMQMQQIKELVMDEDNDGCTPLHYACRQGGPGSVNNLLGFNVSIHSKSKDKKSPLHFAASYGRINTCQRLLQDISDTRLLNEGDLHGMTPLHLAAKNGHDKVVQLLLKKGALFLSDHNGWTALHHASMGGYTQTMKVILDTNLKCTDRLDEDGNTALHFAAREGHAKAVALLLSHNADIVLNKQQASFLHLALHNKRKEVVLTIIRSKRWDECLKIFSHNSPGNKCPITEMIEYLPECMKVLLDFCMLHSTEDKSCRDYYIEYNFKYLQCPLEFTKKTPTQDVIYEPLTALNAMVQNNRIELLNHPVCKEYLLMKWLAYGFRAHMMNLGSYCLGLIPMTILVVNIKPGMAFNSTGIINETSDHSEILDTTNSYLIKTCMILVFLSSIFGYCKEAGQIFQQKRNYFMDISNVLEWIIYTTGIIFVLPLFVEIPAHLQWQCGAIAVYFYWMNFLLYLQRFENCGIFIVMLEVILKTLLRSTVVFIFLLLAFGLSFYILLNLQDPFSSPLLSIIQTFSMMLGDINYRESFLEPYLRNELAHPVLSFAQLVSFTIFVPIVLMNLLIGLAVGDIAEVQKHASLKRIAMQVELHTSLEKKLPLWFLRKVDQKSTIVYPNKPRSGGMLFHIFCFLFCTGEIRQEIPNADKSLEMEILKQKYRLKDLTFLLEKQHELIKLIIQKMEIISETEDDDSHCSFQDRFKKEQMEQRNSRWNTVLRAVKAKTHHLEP
Experimental: (§1) Particularly, the HEK293T cell line was transiently transfected with individual TRP channel plasmid (pcDNA3.1 containing polynucleotide encoding hTRPA1, rTRPV2, rTRPV1 or mTRPV4; pcDNA5/FRT containing polynucleotide encoding mTRPA1, hTRPV3 or mTRPM8) 3 μg per 35-mm dish and 600 ng/well of pcDNA3 (Invitrogen Corp., USA; containing green fluorescent protein (GFP) cDNA) using Fugene6 (Roche Diagnostics, USA) according to manufacturer's instruction. The transformed cells were cultured in DMEM/F12 containing 10% FBS and 1% penicillin/streptomycin in a CO2 incubator for 24 hours. The cells were replated onto poly-L-lysine-coated glass coverslips, followed by further culture for 10-24 hours.
(§2) Stock solutions were made using water or ethanol, and were diluted with test solutions before use.
(§3) Calcium imaging was performed with a confocal microscope (LSM5 Pascal, Carl Zeiss, Germany), and time-lapse images (488 nm excitation/514 nm emission) were collected every 3 seconds using Carl Zeiss ratio tool software (Carl Zeiss, Germany).
as §2

TRPA1 = assay: Whole-cell voltage-clamp recording of TRPA1 transfected cell line; assay type: cell-based
Experimental: as §1, §2
This experiment was repeated 5 times.

mTRPA1 = molecular target: T2, mTRPA1 (Mus musculus, UniProt Q8BLA8); assay: Fluo-3 calcium imaging of mTRPA1-transfected HEK293T cells; assay type: cell-based; settings: 1 mM acetaldehyde + 2 mM camphor or 10 μM ruthenium red, n=21
T2 construct: expressed in transfected cells; host or cells: HEK293T (ATCC CRL-11268), pcDNA5/FRT
T2 sequence (Q8BLA8 whole entry): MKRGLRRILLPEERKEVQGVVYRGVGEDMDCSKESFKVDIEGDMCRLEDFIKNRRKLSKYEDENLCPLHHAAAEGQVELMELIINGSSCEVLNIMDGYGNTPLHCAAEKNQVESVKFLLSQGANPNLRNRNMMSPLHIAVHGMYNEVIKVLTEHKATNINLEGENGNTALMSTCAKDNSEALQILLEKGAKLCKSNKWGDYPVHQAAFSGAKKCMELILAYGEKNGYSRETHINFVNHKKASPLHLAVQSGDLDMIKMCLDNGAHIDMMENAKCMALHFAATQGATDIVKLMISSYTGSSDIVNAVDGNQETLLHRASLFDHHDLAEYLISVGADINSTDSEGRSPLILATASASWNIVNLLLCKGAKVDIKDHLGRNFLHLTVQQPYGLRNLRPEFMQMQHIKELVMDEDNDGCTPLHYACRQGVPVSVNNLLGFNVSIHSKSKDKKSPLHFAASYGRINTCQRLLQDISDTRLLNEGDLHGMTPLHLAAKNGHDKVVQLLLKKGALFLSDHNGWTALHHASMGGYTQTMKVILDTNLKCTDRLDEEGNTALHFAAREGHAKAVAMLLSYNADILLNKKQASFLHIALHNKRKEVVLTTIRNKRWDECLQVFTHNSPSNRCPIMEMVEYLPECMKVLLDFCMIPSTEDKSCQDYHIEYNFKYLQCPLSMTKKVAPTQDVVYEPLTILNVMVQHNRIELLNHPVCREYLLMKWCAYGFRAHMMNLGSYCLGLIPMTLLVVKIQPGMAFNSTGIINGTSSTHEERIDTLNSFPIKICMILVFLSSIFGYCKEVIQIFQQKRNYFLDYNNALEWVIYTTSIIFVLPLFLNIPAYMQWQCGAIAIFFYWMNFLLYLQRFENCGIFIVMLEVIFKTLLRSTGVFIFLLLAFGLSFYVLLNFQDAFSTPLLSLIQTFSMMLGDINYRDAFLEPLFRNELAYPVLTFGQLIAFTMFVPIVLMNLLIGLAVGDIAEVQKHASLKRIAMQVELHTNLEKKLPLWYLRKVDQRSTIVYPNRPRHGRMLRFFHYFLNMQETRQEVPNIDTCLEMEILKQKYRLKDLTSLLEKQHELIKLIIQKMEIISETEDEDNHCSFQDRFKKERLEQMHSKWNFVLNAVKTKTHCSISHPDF
Experimental: as §1, §3, §2

`[Cl][Gd]([Cl])[Cl]` [GdCl3] was tested, and the “inhibition of acetaldehyde-evoked current in trigeminal neurons” value (trigeminal neurons [1]) was “inhibited”, the “suppression of nociceptive behaviors at a micromolar dose” value (ICR mice; 100 μM GdCl3, intradermal) was “significantly suppress” and the “suppression of cinnamaldehyde-evoked licking/flicking behaviors” value (ICR mice) was “suppressed”. The “suppression of acetaldehyde-evoked licking/flicking behaviors” value (ICR mice; intradermal) was “suppressed”.
For `O=S(=O)(NCCNC/C=C/c1ccc(Br)cc1)c1cccc2cnccc12` [H-89], the “suppression of the PGE2-induced potentiation of acetaldehyde responses” value (shortened to “suppression … of acetaldehyde responses”) (trigeminal neurons [2]) was “did not suppress”.
In the case of `COc1ccc2c(c1)CC[C@@H]1[C@@H]2CC[C@]2(C)[C@@H](NCCCCCCN3C(=O)C=CC3=O)CC[C@@H]12` [U73122], the “suppression … of acetaldehyde responses” value (trigeminal neurons [2]) is reported as “significantly suppressed”.
For `COc1ccc2c(c1)CC[C@@H]1[C@@H]2CC[C@]2(C)[C@@H](NCCCCCCN3C(=O)CCC3=O)CC[C@@H]12` [U73343], the “suppression … of acetaldehyde responses” value (trigeminal neurons [2]) was “did not suppress”.
In the case of `CC(=O)O` [acetic acid], the “elevation of intracellular calcium levels in hTRPA1-expressing cells” value (hTRPA1) is reported as “failed to elevate intracellular calcium levels”.
With `CC12CCC(CC1=O)C2(C)C` (stereo not drawn) [camphor] the “inhibition of acetaldehyde-evoked current in TRPA1 expressing cells” value (TRPA1; 1 mM acetaldehyde + 2 mM camphor) was “inhibited”, the “inhibition of acetaldehyde-evoked current in trigeminal neurons” value (trigeminal neurons [1]) was “inhibited” and the “suppression of acetaldehyde-evoked intracellular calcium influx (hTRPA1)” value (hTRPA1) was “completely suppressed”. The “suppression of acetaldehyde-evoked intracellular calcium influx (mTRPA1)” value (mTRPA1) was “suppressed”, the “suppression of cinnamaldehyde-evoked licking/flicking behaviors” value (ICR mice) was “suppressed” and the “duration of suppressive effect on PGE2-potentiated sensitization” value (ICR mice; 100 mM acetaldehyde + 1 μM PGE2 + 10 mM camphor) was 8 min. For the same compound, the “suppression of the effect of co-injection of acetaldehyde and PGE2” value (ICR mice; 100 mM acetaldehyde + 1 μM PGE2 + 10 mM camphor, intradermal) was “suppressed” and the “suppression of acetaldehyde-evoked licking/flicking behaviors” value (ICR mice; intradermal) was “suppressed”.
With `COc1ccc2c(c[n+](C)c3c4cc5c(cc4ccc23)OCO5)c1OC` [chelerythrine] the “suppression … of acetaldehyde responses” value (trigeminal neurons [2]) was “significantly suppressed”.
In the case of `O=CC=Cc1ccccc1` [cinnamaldehyde], the “whole-cell current response in TRPA1 expressing cells” value (TRPA1; 1 mM acetaldehyde, 300 μM cinnamaldehyde, voltage ramp -80 to +80 mV, n=5) is reported as “responsive”, the “elevation of intracellular calcium levels in hTRPA1-expressing cells” value (hTRPA1) is reported as “TRPA1-specific responses; also recorded: responded” and the “acute hindpaw licking/flicking behavior elicited” value (ICR mice; intradermal into hindpaw, 10 μl, 100 mM acetaldehyde or 10 mM cinnamaldehyde, 10 min, n=5) is reported as “time spent in licking/flicking behaviors increased”.
In the case of `CCO` [ethanol], the “elevation of intracellular calcium levels in hTRPA1-expressing cells” value (hTRPA1) is reported as “failed to elevate intracellular calcium levels”.
With `CO` [methanol] the “elevation of intracellular calcium levels in hTRPA1-expressing cells” value (hTRPA1) was “failed to elevate intracellular calcium levels”.
For `N.N.N.N.N.N.N.N.N.N.N.N.N.N.[Cl-].[Cl-].[Cl-].[Cl-].[Cl-].[Cl-].[O-2].[O-2].[Ru+3].[Ru+3].[Ru+4]` [ruthenium red], the “suppression of acetaldehyde-evoked intracellular calcium influx (hTRPA1)” value (hTRPA1) was “so did; also recorded: suppressed”, the “suppression of acetaldehyde-evoked intracellular calcium influx (mTRPA1)” value (mTRPA1) was “suppressed” and the “suppression of acetaldehyde-evoked licking/flicking behaviors” value (ICR mice; intradermal) was “suppressed”.
For SC-51089, the “suppression … of acetaldehyde responses” value (trigeminal neurons [2]) was “significantly suppressed”.
bisindolmaleimide [BIM] was tested, and the “suppression … of acetaldehyde responses” value (trigeminal neurons [2]) was “significantly suppressed”.
